In PubChem BioAssay (NCI) one finds TGI data, which are given here for 15 compounds.

SMILES strings stand for the structures.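 These data come from cells grown in 96-well plates and exposed to compound for 48 hours at five concentrations. At the TGI there is no net growth.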

Common to all, as to experiment: growth of human tumour cells (NCI), 48 h
Assay [1] concerns CCRF-CEM leukemia.
For assay [2], the system named is U251 CNS.
Assay [3] deals with HCC-2998 colon.
Assay [4] has as its system EKVX NSCLC.
Assay [5] deals with NCI-H460 lung.
Assay [6] relates to SNB-75 CNS.
Assay [7] concerns HCT-116 colon.
The test system of assay [8] is SK-MEL-28 melanoma.
Assay [9] relates to M14 melanoma.
In assay [10] the test system is CAKI-1 renal.

`C/C(Nc1ccc(F)cc1)=C1/CCOC1=O`: the TGI in [1], in assay [2], in assay [3], in assay [4], in assay [5] and in assay [6] was above 100 µM throughout. Also, the TGI in assay [7] and in assay [8] was above 100 µM in each case.

`CN(C)c1nc2oc(-c3ccccc3)c(-c3ccccc3)c2c2nnnn12`: the TGI in [1], in assay [2], in assay [3], in [9], in [4] and in [6] was above 100 µM throughout. Also, the TGI in assay [10], in assay [7] and in assay [8] was above 100 µM throughout.

Regarding `CCOC(=O)C(NC(=O)CC)(Nc1cc(C)on1)C(F)(F)F` (stereo not drawn), the TGI in assay [1], in assay [2], in [3], in [9], in assay [4] and in assay [6] was above 100 µM throughout. In addition, the TGI in assay [7] and in [8] was above 100 µM in each case.

For `O=c1ccn(CC2(CO)CC(Cc3ccccc3)C2)c(=O)[nH]1` (stereo not drawn), the TGI in assay [1], in assay [2], in assay [3], in assay [4], in [5] and in [6] was above 100 µM throughout. Moreover, the TGI in assay [10], in assay [7] and in assay [8] was above 100 µM throughout.

Consider `CC1(c2ccc[n+](Cc3ccccc3)c2)OCCO1`, for which the TGI in assay [1], in assay [2], in [3], in [9], in assay [4] and in [5] was above 100 µM throughout. Further, the TGI in assay [6], in [10] and in assay [7] was above 100 µM each time.

Consider `c1cn(C23C4C5C6C4C2C6C53)cn1` (stereo not drawn), for which the TGI in [1], in [2], in assay [3], in assay [9], in [4] and in assay [5] was above 100 µM each time. The TGI in [6], in assay [7] and in [8] was above 100 µM each time.

On to `COc1ccc(-c2cc(-c3ccc(Nc4ccnc5cc(Cl)ccc45)cc3)[nH]c(=O)c2C#N)c2ccccc12`, for which the TGI was above 100 µM in assay [1]; above 92.9 µM in [3]; 4.93 µM in assay [9]; above 100 µM in assay [4]; above 100 µM in [5]; 95.4 µM in assay [6]. For the same compound, the TGI in [10] was 48.4 µM; in assay [8], 42.3 µM.

For the compound `CCOC(=O)c1cc2c3c(c(C(C)=O)c(O)c2[nH]1)N(CC(C)CC)CC3` (stereo not drawn), the TGI in [1], in assay [2], in assay [4], in assay [5], in [6] and in assay [10] was above 100 µM each time. The TGI in assay [7] and in [8] was above 100 µM in each case.

In the case of `Oc1c([Si](c2ccccc2)(c2ccccc2)c2ccccc2)cc2ccccc2c1-c1c(O)c([Si](c2ccccc2)(c2ccccc2)c2ccccc2)cc2ccccc12`, the TGI in [1], in assay [2], in assay [3], in [9], in assay [4] and in assay [5] was above 100 µM each time. Moreover, the TGI in assay [6], in assay [10] and in [8] was above 100 µM in each case.

On to `CCN(C(=S)N[C@H](C(=O)N[C@@H](C)C(=O)OC)C(C)C)c1ccccc1`, for which the TGI in assay [1], in [2], in [3], in assay [9], in assay [4] and in assay [5] was above 100 µM throughout. Besides, the TGI in [10], in assay [7] and in [8] was above 100 µM throughout.

For `Cc1c(NC(=O)CSC(=S)N2CCN(Cc3ccccc3)CC2)c(=O)n(-c2ccccc2)n1C`, the TGI in assay [1], in [2], in assay [3], in [9], in assay [4] and in [5] was above 100 µM in each case. The TGI in [10], in assay [7] and in assay [8] was above 100 µM throughout.

In the case of `COc1ccc(-c2cc(-c3cc4cc(Br)ccc4nc3Cl)c(C#N)c(N)n2)cc1`, the TGI in assay [1], in [9], in [4], in assay [6], in [10] and in assay [7] was above 12.5 µM throughout. In addition, the TGI in assay [8] was above 12.5 µM.

In the case of `COC(=O)C(CSSC[C@H](N/C(C)=C/C(C)=O)C(=O)OC)N/C(C)=C/C(C)=O` (stereo partly drawn), the TGI in assay [1] is 71.5 µM; in [2] it was above 100 µM; in assay [9], above 100 µM; in [4] it was 41.4 µM; in assay [5] it was above 100 µM; in assay [6], above 100 µM. Besides, the TGI in assay [10] is 55.4 µM; in assay [7] it was above 100 µM; in [8] it was above 100 µM.

`CC(=O)c1c(C(F)(F)F)n([O-])c2cc(Cl)c(Cl)cc2[n+]1=O`: the TGI in assay [1] stood at 0.563 µM; in assay [2], 2.63 µM; in [9] it was 2.61 µM; in assay [4] it was 2.89 µM; in [5], 0.852 µM; in assay [6] it was 2.25 µM. The TGI in assay [10] amounted to 3.33 µM; in assay [7], 1.61 µM; in assay [8], 3.87 µM.

For the compound `O=c1c2cc(I)ccc2nc(-c2cccs2)n1-c1ccc(O)cc1`, the TGI in [2] was determined as 48.5 µM; in [3], 30.6 µM; in assay [9], 29.3 µM; in assay [4], 33.4 µM; in assay [5], 52.6 µM; in [10], 32.9 µM. The TGI was found to be 27.4 µM in assay [7] and 34 µM in assay [8].
